Measurements as given in US9545386B2, “Methods of treating infectious diseases” (SLIPPERY ROCK UNIVERSITY FOUNDATION, INC., priority 2007, dated 2017).

Experiments:
[1] = test system: T. avium trypomastigotes; assay: Short-term behavioral study (swimming behavior and maneuverability); assay type: cell-based, Trypanosoma avium; details: 75 μl eryngial (1%) and Triton X-100 (0.04%) added to 75 μl T. avium; observed at 15-minute intervals for 1 hr
Description: A short-term behavioral study also was conducted by adding 75 μl of eryngial (1%) and Triton X-100 (0.04%) to 75 μl of L.N.S. with T. avium (1.0×10^5 trypomastigotes/ml). The swimming behavior and maneuverability of the organisms were observed microscopically in triplicate samples at 15-minute intervals for 1 hr. This was recorded with a digital video camera.

[2] = test system: Escherichia coli; assay: Antibacterial MIC, 96 well broth dilution; assay type: cell-based; details: E. coli (gram-negative), 24 hr, 0.02% Triton X-100, highest concentration tested 10 mg/ml
Description: (§1) Bacterial cultures were obtained from the American Type Culture Collection (ATCC), except for Streptococcus pyogenes, which was started from a Difco Bactrol disc. The other organisms were Enterococcus faecalis, Staphylococcus aureus, Escherichia coli, Salmonella typhimurium and Pseudomonas aeruginosa. Cultures were grown in Luria-Bertani (LB) broth. Fungi were obtained from Carolina Biological Supply Company (Aspergillus niger, Candida albicans and Cryptococcus neoformans); Presque Isle Cultures, Erie Pa. (Microsporum gypseum); or from ATCC (Penicillium marneffei). Fungal cultures were maintained in Sabouraud dextrose broth (SDB) or agar (SDA). All media components came from Difco.
(§2) Tests were done in flat-bottomed 96 well cell culture plates (Costar). All samples were done in duplicate. Eryngial was suspended in culture medium plus 0.04% Triton-X to make a 2% (20 mg/ml) suspension, which was passed through a 0.22 μm filter to make a uniform emulsion. Serial doubling dilutions of eryngial in culture medium plus 0.04% Triton-X were prepared, and 75 μl was added to each well. 75 μl of cell or spore suspensions in culture medium also were added to each well. The final concentration of Triton-X was 0.02%, and the final concentration of eryngial was 1% (10 mg/ml) at the highest concentration tested.
(§3) Overnight bacterial cultures in LB medium were diluted into fresh LB to an OD600 of 0.02 to 0.03, and then diluted 1000-fold again in LB. […] Blank wells for each concentration of eryngial were prepared with plain culture medium added.
(§4) The 96 well plates were incubated at 37° for 24 hr (in a candle jar for S. pyogenes), and the OD630 was read on an EL800 universal microplate reader (Bio-Tek Instruments). Readings from duplicate wells were averaged, and readings from duplicate blank wells for each concentration of eryngial were subtracted to generate the final values. The minimum inhibitory concentration (MIC, μg/ml) was defined as the well with the highest dilution of eryngial in which no growth was observed.

[3] = test system: Pseudomonas aeruginosa; assay: Antibacterial MIC, 96 well broth dilution; assay type: cell-based; details: P. aeruginosa (gram-negative), 24 hr, 0.02% Triton X-100, highest concentration tested 10 mg/ml
Description: as §1, §2, §3, §4

[4] = test system: Salmonella typhimurium; assay: Antibacterial MIC, 96 well broth dilution; assay type: cell-based; details: S. typhimurium (gram-negative), 24 hr, 0.02% Triton X-100, highest concentration tested 10 mg/ml
Description: as §1, §2, §3, §4

[5] = test system: Strongyloides stercoralis infective larvae; assay: In vitro bioassay of infective larvae, immobilization and lethal doses (eosin, Probit); assay type: cell-based; details: for 24 hr ID50 ± 95% confidence intervals / 48 hr ID50 ± 95% confidence intervals: immobilize 50%; for 24 hr ID50 ± 95% confidence intervals / 24 hr ID90 ± 95% confidence intervals / 24 hr LD50 ± 95% confidence intervals / 24 hr LD90 ± 95% confidence intervals: 24 hr in vitro; for 48 hr ID50 ± 95% confidence intervals / 48 hr ID90 ± 95% confidence intervals / 48 hr LD50 ± 95% confidence intervals / 48 hr LD90 ± 95% confidence intervals: 48 hr in vitro; for 24 hr ID90 ± 95% confidence intervals / 48 hr ID90 ± 95% confidence intervals: immobilize 90%; for 24 hr LD50 ± 95% confidence intervals / 48 hr LD50 ± 95% confidence intervals: kill 50%; for 24 hr LD90 ± 95% confidence intervals / 48 hr LD90 ± 95% confidence intervals: kill 90%
Description: Strongyloides stercoralis infective larvae were harvested from charcoal coprocultures in nematode saline solution. The larvae were supplied by the Parasitology Laboratory, Department of Pathobiology, University of Pennsylvania. The strain of larvae was a human strain of the parasitic nematode that had been maintained for over ten years in canines by daily prednisolone treatment (2 mg/kg per os, once daily. Parastrongyloides trichosuri and Ancylostoma caninum infective larvae were also supplied by the same source as for S. stercoralis. Haemonchus contortus infective larvae were harvested from charcoal coprocultures in nematode saline solution prepared from infected sheep feces obtained from Merck Parasites Laboratory.
The 24 hr 50% and 90% immobilization doses (ID50 and ID90), and 50% and 90% lethal doses (LD50 and LD90) of eryngial (mg/ml) were investigated in vitro using infective larvae of all four parasitic nematodes. Each species was exposed to a range of eryngial dilutions by adding known volumes of a homogeneous ‘wormy’ solution (infective larvae in nematode saline solution) to known volumes of an eryngial stock suspension (10 mg/ml of nematode saline solution). Each dilution, including the control (0 mg/ml eryngial), was prepared in triplicate and also contained eosin (0.01%, w/v), which was used as an indicator of mortality, and Triton X-100 (1.0%, v/v).
Using S. stercoralis, P. trichosuri, H. contortus and A. caninum infective larvae, eryngial dilutions, excluding the controls, ranged from 0.05 to 1.15 mg/ml; 0.01 to 1.0 mg/ml; 0.5 to 2.0 mg/ml; and 0.8 to 3.0 mg/ml, respectively. Sub-sample (10 μl) counts of larvae that were mobile, immobile but not stained and stained, were done at the start of each bioassay and at 24 hr intervals for two days. Each sub-sample contained approximately 50 infective larvae.
The 48-hr immobilization doses (ID50 and ID90) and lethal doses (LD50 and LD90) of eryngial and ivermectin also were investigated, using S. stercoralis and H. contortus infective larvae. Each bioassay was conducted as described hereinabove. Using S. stercoralis and H. contortus infective larvae, ivermectin dilutions (not including the controls) ranged from 0.03 to 0.3 mg/ml and from 0.009 to 0.1 mg/ml, respectively.
Probit analysis was used to determine 24 hr and 48 hr immobilization and lethal doses for eryngial and ivermectin, respectively.

[6] = test system: S. stercoralis L3 larvae; details: after 120 hr of incubation, Forbes et al. (unpublished); cited from earlier work
[7] = S. stercoralis infective larvae
[8] = S. stercoralis infective larvae, listed as eryngial
[9] = S. stercoralis, eryngial vs ivermectin

CCCCCCCCC/C=C/C=O [Eryngial, trans-2-dodecenal]
swimming behavior and maneuverability of trypomastigotes [1]: movement was completely stopped
inhibited by eryngial [2]: none
inhibited by eryngial [3]: none
inhibited by eryngial [4]: none
decrease in the 50% immobilization dose ([5]; 24 hr ID50, S. stercoralis compared with A. caninum): 9.4 fold
decrease in the 50% immobilization dose ([5]; 24 hr ID50, S. stercoralis compared with H. contortus): 2.3 fold
less sensitive to eryngial than P. trichosuri ([5]; 24 hr ID50, S. stercoralis relative to P. trichosuri): 4.5 fold
increased sensitivity to eryngial (90% immobilization) ([5]; 24 hr ID90, S. stercoralis over A. caninum): 10.7 fold
increase in sensitivity to eryngial (50% mortality doses) ([5]; 24 hr LD50, S. stercoralis than A. caninum): 7.2 fold
increase in sensitivity to eryngial (50% mortality doses) ([5]; 24 hr LD50, S. stercoralis than H. contortus): 21.1 fold
increased sensitivity to eryngial (90% mortality doses) ([5]; 24 hr LD90, S. stercoralis over A. caninum): 8.2 fold
increased sensitivity to eryngial (90% mortality doses) ([5]; 24 hr LD90, S. stercoralis over H. contortus): 19.3
times more effective than ivermectin (48 hr ID90) ([5]; S. stercoralis L3 larvae, eryngial vs ivermectin): 3.9 times
times more potent than ivermectin (48 hr ID50) ([5]; S. stercoralis infective larvae, eryngial vs ivermectin): 2.5 times
24 hr ID50 ± 95% confidence intervals [5, 7]: 0.058 (0.054-0.061) mg/ml
24 hr ID50 ± 95% confidence intervals [5, 8]: 0.058 mg/mL
48 hr ID50 ± 95% confidence intervals [5, 7]: 0.054 (0.047-0.061) mg/ml
48 hr ID50 ± 95% confidence intervals [5, 8]: 0.054 mg/mL
24 hr ID90 ± 95% confidence intervals [5, 7]: 0.081 (0.076-0.088) mg/ml
24 hr ID90 ± 95% confidence intervals [5, 8]: 0.081 mg/mL
48 hr ID90 ± 95% confidence intervals [5, 7]: 0.077 (0.066-0.101) mg/ml
48 hr ID90 ± 95% confidence intervals [5, 8]: 0.077 mg/mL
24 hr LD50 ± 95% confidence intervals [5, 7]: 0.085 (0.073-0.102) mg/ml
24 hr LD50 ± 95% confidence intervals [5, 8]: 0.085 mg/mL
48 hr LD50 ± 95% confidence intervals [5, 7]: 0.069 (0.058-0.085) mg/ml
48 hr LD50 ± 95% confidence intervals [5, 8]: 0.069 mg/mL
24 hr LD90 ± 95% confidence intervals [5, 7]: 0.143 (0.115-0.245) mg/ml
24 hr LD90 ± 95% confidence intervals [5, 8]: 0.143 mg/mL
48 hr LD90 ± 95% confidence intervals [5, 7]: 0.105 (0.085-0.174) mg/ml
48 hr LD90 ± 95% confidence intervals [5, 8]: 0.105 mg/mL
times more effective than ivermectin (48 hr LD50) [5, 9]: 4.4 times
times more potent than ivermectin (48 hr LD90) [5, 9]: 9.9 times
increase in effectiveness over ivermectin based on time (hr) taken to kill 50% (LT50) [6]: 7.1 fold
